Laboratory results from PubChem BioAssay (NCI).
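All cell lines were grown in 96-well plates and treated with compound for 48 hours. At the TGI there is no net growth.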

Legend:
Experiment in all cases: NCI-60 cell line screen, 48 h
[1] = tested on: MCF7 breast
[2] = tested on: CAKI-1 renal
[3] = tested on: SF-268 CNS
[4] = tested on: HCT-15 colon
[5] = tested on: K-562 leukemia
[6] = tested on: SN12C renal
[7] = tested on: HOP-62 NSCLC
[8] = tested on: SK-OV-3 ovarian
[9] = tested on: MDA-N
[10] = tested on: U251 CNS
[11] = tested on: SK-MEL-28 melanoma
[12] = tested on: UACC-257 melanoma
[13] = tested on: UACC-62 melanoma
[14] = tested on: SK-MEL-2 melanoma
[15] = tested on: SNB-19 CNS
[16] = tested on: MDA-MB-231 breast
[17] = tested on: M14 melanoma
[18] = tested on: SNB-75 CNS
[19] = tested on: 786-0 renal
[20] = tested on: UO-31 renal
[21] = tested on: SW-620 colon
[22] = tested on: TK-10 renal
[23] = tested on: HT29 colon
[24] = tested on: RXF 393 renal
[25] = tested on: BT-549 breast
[26] = tested on: OVCAR-4 ovarian
[27] = tested on: EKVX NSCLC
[28] = tested on: MOLT-4 leukemia
[29] = tested on: OVCAR-3 ovarian
[30] = tested on: SF-539 CNS
[31] = tested on: NCI-H460 lung
[32] = tested on: HCT-116 colon
[33] = tested on: HL-60(TB) leukemia
[34] = tested on: HOP-92 NSCLC
[35] = tested on: NCI-H226 lung
[36] = tested on: COLO 205 colon
[37] = tested on: HS 578T breast
[38] = tested on: OVCAR-8 ovarian
[39] = tested on: KM12 colon
[40] = tested on: MALME-3M melanoma
[41] = tested on: T-47D breast
[42] = tested on: NCI-H522 lung
[43] = tested on: OVCAR-5 ovarian
[44] = tested on: IGROV1 ovarian
[45] = tested on: DU-145 prostate
[46] = tested on: NCI/ADR-RES ovarian
[47] = tested on: NCI-H23 lung
[48] = tested on: CCRF-CEM leukemia
[49] = tested on: LOX IMVI melanoma
[50] = tested on: ACHN renal
[51] = tested on: SK-MEL-5 melanoma
[52] = tested on: A549 NSCLC
[53] = tested on: MDA-MB-435
[54] = tested on: A498 renal
[55] = tested on: PC-3 prostate
[56] = tested on: RPMI-8226 leukemia
[57] = tested on: SF-295 CNS
[58] = tested on: SR leukemia
[59] = tested on: HCC-2998 colon

Clc1cc(-c2ccccc2)nc2ccccc12
TGI [1]: > 100 µM
TGI [2]: > 100 µM
TGI [3]: > 100 µM
TGI [4]: 36.5 µM
TGI [5]: > 100 µM
TGI [6]: > 100 µM
TGI [7]: > 100 µM
TGI [8]: > 100 µM
TGI [9]: > 100 µM
TGI [10]: > 100 µM
TGI [11]: > 100 µM
TGI [12]: > 100 µM
TGI [13]: > 100 µM
TGI [14]: 38 µM
TGI [15]: > 100 µM
TGI [16]: > 100 µM
TGI [17]: > 100 µM
TGI [18]: 83.5 µM
TGI [19]: > 100 µM
TGI [20]: > 100 µM
TGI [21]: > 100 µM
TGI [22]: 71.6 µM
TGI [23]: > 100 µM
TGI [24]: > 100 µM
TGI [25]: 80.4 µM
TGI [26]: 62.3 µM
TGI [27]: > 100 µM
TGI [28]: 54.6 µM
TGI [29]: > 100 µM
TGI [30]: > 100 µM
TGI [31]: > 100 µM
TGI [32]: > 100 µM
TGI [33]: 53.3 µM
TGI [34]: > 100 µM
TGI [35]: 92.9 µM
TGI [36]: 37.5 µM
TGI [37]: > 100 µM
TGI [38]: > 100 µM
TGI [39]: 77.5 µM
TGI [40]: > 100 µM
TGI [41]: > 100 µM
TGI [42]: 34 µM
TGI [43]: > 100 µM
TGI [44]: > 100 µM
TGI [45]: > 100 µM
TGI [46]: > 100 µM
TGI [47]: > 100 µM
TGI [48]: 54.1 µM
TGI [49]: > 100 µM
TGI [50]: > 100 µM
TGI [51]: 33 µM
TGI [52]: > 100 µM
TGI [53]: 95.4 µM
TGI [54]: 94.3 µM
TGI [55]: 84.2 µM
TGI [56]: 59 µM
TGI [57]: > 100 µM

NC(CC(O)(c1ccccc1)c1ccccc1)c1ccccc1S (stereo not given)
TGI [1]: 29.9 µM
TGI [3]: 24.8 µM
TGI [4]: 33.6 µM
TGI [5]: 37.2 µM
TGI [6]: 44.1 µM
TGI [7]: 30.2 µM
TGI [8]: 37.6 µM
TGI [9]: 30.4 µM
TGI [10]: 28.3 µM
TGI [11]: 31.5 µM
TGI [12]: 43.8 µM
TGI [13]: 32 µM
TGI [14]: 33.2 µM
TGI [15]: 32.4 µM
TGI [16]: 33.3 µM
TGI [17]: 29 µM
TGI [18]: 28.2 µM
TGI [19]: 29.4 µM
TGI [20]: 23.5 µM
TGI [21]: 36.4 µM
TGI [22]: 29.7 µM
TGI [23]: 37.5 µM
TGI [24]: 31 µM
TGI [58]: > 100 µM
TGI [25]: 27.8 µM
TGI [26]: 29.7 µM
TGI [27]: 25.1 µM
TGI [59]: 50 µM
TGI [28]: 59.6 µM
TGI [29]: 29.5 µM
TGI [31]: 38.3 µM
TGI [32]: 26.2 µM
TGI [33]: 59.5 µM
TGI [35]: 29.8 µM
TGI [36]: 32 µM
TGI [37]: 51 µM
TGI [39]: 25.5 µM
TGI [40]: 54.8 µM
TGI [41]: 37.4 µM
TGI [42]: 30.3 µM
TGI [43]: 31.7 µM
TGI [46]: 33.5 µM
TGI [47]: 37.7 µM
TGI [48]: 40.7 µM
TGI [49]: 30.5 µM
TGI [50]: 27.3 µM
TGI [51]: 25.6 µM
TGI [52]: 29.5 µM
TGI [53]: 28 µM
TGI [54]: 32.7 µM
TGI [55]: 24.2 µM
TGI [56]: 68.3 µM
TGI [57]: 31.4 µM
